Where two headings read alike, the source gives them in different places.
How the values were obtained:
MT-4 cells = experiment: Cytostatic assay, MT-4; assay type: cell-based; settings: Homo sapiens, MT4; Table 2
Description: (§1) To each well of a 96-well microtiter plate were added 5-7.5×10^4 cells and a given amount of the test compound. The cells were allowed to proliferate for 48 h to 96 h (depending on the nature of the cell line) at 37° C. in a humidified CO2-controlled atmosphere. At the end of the incubation period, the cells were counted in a Coulter Counter (Coulter Electronics Ltd, Harpenden Herts, United Kingdom).

MT-2 cells = experiment: Cytostatic assay, MT-2; assay type: cell-based; settings: Homo sapiens, MT2; Table 2
Description: as §1

BPH-1 (UZ) = experiment: Cytostatic assay, BPH-1 (UZ); assay type: cell-based; settings: Homo sapiens, Table 4
Description: as §1

[1] = system: DNA synthesis in Raji cells; experiment: Antimetabolic activity assay, [CH3-3H]dThd incorporation (DNA synthesis), Raji; assay type: cell-based; settings: Homo sapiens, incorporation into TCA-insoluble material
Description: [The procedure below names another cell line; the source lists this cell line under the same test.] (§2) Radiolabeled precursors of DNA synthesis ([^3H-methyl]dThd), RNA synthesis ([5-^3H]Urd), and protein synthesis ([4,5-^3H]leu) were added to 10^5 CEM cell cultures in the 200 μl-wells of a microtiter plate at 1 μCi for each precursor in the presence of varying concentrations of the test compounds (5-fold dilution series). The cells were allowed to proliferate for 20 hrs at 37° C. in a humidified, CO2-controlled atmosphere. At the end of the incubation period, the contents of the wells were brought onto 25-mm glass fiber filters and further processed for measurement of acid-insoluble radioactivity.

CEM cells = experiment: Cytostatic assay, CEM; assay type: cell-based; settings: Homo sapiens, CCRF-CEM
Outline: (§3)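 Test compound was added to wells holding 5-7.5×10^4 cells. After line-specific growth periods of 48 h to 96 h at 37° C in a moist atmosphere with regulated CO2, the number of cells was recorded by Coulter counting.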

[2] = system: HL60, human leukemia cells; experiment: Cytostatic assay, HL-60; assay type: cell-based; settings: Table 2
Description: as §1

Molt4/C8 cells = experiment: Cytostatic assay, Molt4/C8; assay type: cell-based; settings: Table 2
Description: as §1

[3] = system: RNA synthesis in Raji cells; experiment: Antimetabolic activity assay, [5-3H]uridine incorporation (RNA synthesis), Raji; assay type: cell-based; settings: Homo sapiens, incorporation into TCA-insoluble material
Description: [The procedure below names another cell line; the source lists this cell line under the same test.] as §2

U87 glioma cells = experiment: Cytostatic assay, U87; assay type: cell-based; settings: Homo sapiens, U-87 MG; Table 3
Description: as §1

Huh-7 hepatoma cells = experiment: Cytostatic assay, Huh-7; assay type: cell-based; settings: Homo sapiens, Table 4
Description: as §1

[4] = system: HEL embryonic lung fibroblast cells; experiment: Cytostatic assay, HEL; assay type: cell-based; settings: Homo sapiens, Table 3
Description: as §1

[5] = system: 22Rv1 (UZ) prostate cancer cells; experiment: Cytostatic assay, 22Rv1 (UZ); assay type: cell-based; settings: Homo sapiens, Table 4
Description: as §1

C8166 cells = experiment: Cytostatic assay, C8166; assay type: cell-based; settings: Homo sapiens, Table 2
Description: as §1

[6] = system: BAEC aortic endothelial cells; experiment: Cytostatic assay, BAEC; assay type: cell-based, bovine; settings: Bos taurus, Table 3
Description: as §1

[7] = system: protein synthesis in CEM cells; experiment: Antimetabolic activity assay, [4,5-3H]leucine incorporation (protein synthesis), CEM; assay type: cell-based; settings: Homo sapiens, CCRF-CEM, incorporation into TCA-insoluble material
Description: as §2

[8] = system: Raji, human B-lymphoma cells; experiment: Cytostatic assay, Raji; assay type: cell-based; settings: Table 2
Description: as §1

[9] = system: Caki-1 kidney carcinoma cells; experiment: Cytostatic assay, Caki-1; assay type: cell-based; settings: Homo sapiens, Table 3
Description: as §1

[10] = system: PNT1A (UZ) prostate cells; experiment: Cytostatic assay, PNT1A (UZ); assay type: cell-based; settings: Homo sapiens, Table 4
Description: as §1

[11] = system: FM3A mammary carcinoma cells; experiment: Cytostatic assay, FM3A; assay type: cell-based, murine; settings: Mus musculus, Table 3
Description: as §1

[12] = system: DNA synthesis in CEM cells; experiment: Antimetabolic activity assay, [CH3-3H]dThd incorporation (DNA synthesis), CEM; assay type: cell-based; settings: Homo sapiens, CCRF-CEM, incorporation into TCA-insoluble material
Description: as §2

[13] = system: MCF-7 mammary carcinoma cells; experiment: Cytostatic assay, MCF-7; assay type: cell-based; settings: Homo sapiens, MCF7; Table 3
Description: as §1

PLC/PRF/5 hepatoma cells = experiment: Cytostatic assay, PLC/PRF/5; assay type: cell-based; settings: Homo sapiens, Table 4
Description: as §1

HepG2C3A hepatoma cells = experiment: Cytostatic assay, HepG2C3A; assay type: cell-based; settings: Homo sapiens, HepG2/C3A; Table 4
Description: as §1

HUT-78 cells = experiment: Cytostatic assay, HUT-78; assay type: cell-based; settings: Homo sapiens, HuT78; Table 2
Description: as §1

[14] = system: HeLa cervix carcinoma cells; experiment: Cytostatic assay, HeLa; assay type: cell-based, human; settings: Homo sapiens; Table 3; read-out: Cytostatic activity (μM) Hela
Outline: as §3

[15] = system: HT29 colorectal carcinoma cells; experiment: Cytostatic assay, HT29; assay type: cell-based; settings: Homo sapiens, HT-29; Table 3
Description: as §1

[16] = system: DU145 (UZ) prostate cancer cells; experiment: Cytostatic assay, DU145 (UZ); assay type: cell-based; settings: Homo sapiens, DU-145; Table 4
Description: as §1

[17] = system: RNA synthesis in CEM cells; experiment: Antimetabolic activity assay, [5-3H]uridine incorporation (RNA synthesis), CEM; assay type: cell-based; settings: Homo sapiens, CCRF-CEM, incorporation into TCA-insoluble material
Description: as §2

Sup T1 cells = experiment: Cytostatic assay, Sup T1; assay type: cell-based; settings: Homo sapiens, Table 2, read-out: Cytostatic activity (μM) Sup T 1
Description: as §1

[18] = system: PC-3 (UZ) prostate cancer cells; experiment: Cytostatic assay, PC-3 (UZ); assay type: cell-based; settings: Table 4
Description: as §1

[19] = system: LNCaP (UZ) prostate cancer cells; experiment: Cytostatic assay, LNCaP (UZ); assay type: cell-based; settings: Homo sapiens, Table 4
Description: as §1

[20] = system: protein synthesis in Raji cells; experiment: Antimetabolic activity assay, [4,5-3H]leucine incorporation (protein synthesis), Raji; assay type: cell-based; settings: Homo sapiens, incorporation into TCA-insoluble material
Description: [The procedure below names another cell line; the source lists this cell line under the same test.] as §2

[21] = system: Caki-2 kidney carcinoma cells; experiment: Cytostatic assay, Caki-2; assay type: cell-based; settings: Homo sapiens, Table 3
Description: as §1

[22] = system: PC3 (rega) prostate cancer cells; experiment: Cytostatic assay, PC3 (rega); assay type: cell-based; settings: Table 4
Description: as §1

[23] = system: OST TK- osteosarcoma cells; experiment: Cytostatic assay, OST TK-; assay type: cell-based; settings: Homo sapiens; Table 3
Description: as §1

[24] = system: 293T embryonic kidney cells; experiment: Cytostatic assay, 293T; assay type: cell-based; settings: Homo sapiens, HEK-293T; Table 3
Description: as §1

[25] = system: THP-1, human monocytic cells; experiment: Cytostatic assay, THP-1; assay type: cell-based; settings: Table 2
Description: as §1

[26] = system: U937, human monocytic cells; experiment: Cytostatic assay, U937; assay type: cell-based; settings: U-937, Table 2
Description: as §1

L1210 cells = experiment: Cytostatic assay, L1210; assay type: cell-based; settings: Mus musculus, Table 2
Description: as §1

[27] = Table 1a, read-out: IC50 μM (CEM)
[28] = Table 2, read-out: Cytostatic activity (μM) CEM

IC50 (MT-2 cells) [µM] | IC50 (BPH-1 (UZ)) [µM] | IC50 [1] [µM] | IC50 (CEM cells; [28]) [µM] | IC50 [2] [µM] | IC50 (Molt4/C8 cells) [µM] | IC50 [3] [µM] | IC50 (U87 glioma cells) [µM] | IC50 (Huh-7 hepatoma cells) [µM] | IC50 [5] [µM] | IC50 (C8166 cells) [µM] | IC50 [6] [µM] | IC50 [7] [µM] | IC50 [8] [µM] | IC50 [9] [µM] | IC50 [10] [µM] | IC50 [11] [µM] | IC50 [12] [µM] | Compound | IC50 (MT-4 cells) [µM] | IC50 [4] [µM] | other results
4.2 ± 0.79 | 1.3 ± 0.071 | 82 ± 6 | 1.6 ± 0.071 | 0.89 ± 0.3 | 0.42 ± 0.11 | ≥ 100 | 1.8 ± 0.071 | 2.2 ± 0.49 | 0.31 ± 0.087 | 1.4 ± 0.76 | 2 ± 0.28 | 1.1 ± 0.5 | 2.2 ± 0.28 | 2.5 ± 0.6 | 0.77 ± 0.31 | 2.5 ± 0.28 | 7.5 ± 5.5 | COC(=O)c1cc(CCc2cc(OC)ccc2OC)sc1N [TR584, 2-Amino-5-[2-(2,5-dimethoxy-phenyl)-ethyl]-thiophene-3-carboxylic acid methyl ester] | 1.6 ± 0.21 | 0.87 ± 0.014 | IC50 (CEM cells; [27]): 1.6 µM; IC50 [13]: 0.93 ± 0.23 µM; IC50 (PLC/PRF/5 hepatoma cells): 1.3 ± 0.21 µM; IC50 (HepG2C3A hepatoma cells): 4.5 ± 1.7 µM; IC50 (HUT-78 cells): 2.6 ± 2.1 µM; IC50 [14]: 0.83 ± 0.25 µM; IC50 [15]: 1.8 ± 0.21 µM; IC50 [16]: 1.6 µM; IC50 [17]: 2.4 ± 0.2 µM; IC50 (Sup T1 cells): 0.61 ± 0.26 µM; IC50 [18]: 0.81 ± 0.42 µM; IC50 [19]: 0.38 ± 0.11 µM; IC50 [20]: 62 ± 1 µM; IC50 [21]: 0.93 ± 0.28 µM; IC50 [22]: 0.36 ± 0.18 µM; IC50 [23]: 0.68 ± 0.33 µM; IC50 [24]: 1.9 µM; IC50 [25]: 3.1 ± 0.07 µM; IC50 [26]: 4.2 ± 0.07 µM
4.75 ± 0.08 | 7 ± 0.42 | ≥ 100 | 8.3 ± 2.4 | 3.5 ± 0.57 | 2 ± 0.2 | ≥ 100 | 10 ± 0.78 | 8.3 ± 0.78 | 9.4 ± 5.8 | 16 ± 6.5 | 9.7 ± 1.8 | 11 ± 8 | 13 ± 3.5 | 4.6 ± 1.3 | 8 ± 0.42 | 25 ± 0.71 | > 100 | COc1ccccc1CCc1cc(C#N)c(N)s1 [TR585, 2-Amino-5-[2-(2-methoxy-phenyl)-ethyl]-thiophene-3-carbonitrile] | 8.1 ± 0.78 | 7.2 ± 0.49 | IC50 (CEM cells; [27]): 8.3 µM; IC50 [13]: 5.42 ± 0.69 µM; IC50 (PLC/PRF/5 hepatoma cells): 6.7 ± 0.64 µM; IC50 (HepG2C3A hepatoma cells): 7.2 ± 4 µM; IC50 (HUT-78 cells): 7.1 ± 1.3 µM; IC50 [14]: 8.3 ± 1.5 µM; IC50 [15]: 8.9 ± 0.92 µM; IC50 [16]: 6.4 ± 1.8 µM; IC50 [17]: ≥ 100 µM; IC50 (Sup T1 cells): 4.7 ± 0.38 µM; IC50 [18]: 2.6 ± 0.64 µM; IC50 (L1210 cells): 15 ± 4 µM; IC50 [19]: 2.7 ± 0.95 µM; IC50 [20]: ≥ 100 µM; IC50 [21]: 4.8 ± 4.5 µM; IC50 [22]: 1.7 ± 0.35 µM; IC50 [23]: 3.96 ± 1.56 µM; IC50 [24]: 10 ± 0.071 µM; IC50 [25]: 3.8 ± 0.6 µM; IC50 [26]: 3.4 ± 2.8 µM
8.1 ± 1.2 | 28 ± 3.5 | 25 ± 16 | 20 ± 6 | 17 ± 0.7 | 24 ± 17 | 31 ± 19 | 39 ± 2.8 | 34 ± 14 | 14 ± 8.3 | 25 ± 3.5 | 31 ± 4.2 | 17 | 41 ± 7.1 | 24 ± 0.7 | 31 ± 0.71 | 33 ± 9 | 17 ± 8 | CCOC(=O)c1c(N)sc(CCc2cc(OC)ccc2OC)c1C(=O)OCC [TR592, 2-Amino-5-[2-(2,5-dimethoxy-phenyl)-ethyl]-thiophene-3,4-dicarboxylic acid diethyl ester] | 36 ± 16 | 35 ± 6.4 | IC50 [13]: 27 ± 19 µM; IC50 (PLC/PRF/5 hepatoma cells): 25 µM; IC50 (HepG2C3A hepatoma cells): 34 ± 12 µM; IC50 (HUT-78 cells): 26 ± 3.5 µM; IC50 [14]: 11 ± 3 µM; IC50 [15]: 43 ± 4.2 µM; IC50 [16]: 18 ± 2.1 µM; IC50 [17]: 31 ± 22 µM; IC50 (Sup T1 cells): 4.1 ± 0.4 µM; IC50 [18]: 8.5 ± 0.85 µM; IC50 [19]: 4.1 ± 3.6 µM; IC50 [20]: 23 ± 7 µM; IC50 [21]: 42 ± 2.1 µM; IC50 [22]: 12 ± 2.1 µM; IC50 [23]: 17 ± 5.7 µM; IC50 [24]: 30 ± 7.1 µM; IC50 [25]: 20 ± 1.4 µM; IC50 [26]: 20 ± 15 µM
